Where “and” joins values, the source holds several entries; their conditions need not be identical. Equal values may be shown once.
Experiments:
peroxidase = experiment: Peroxidase assay in saliva (Amplex Red); type: biochemical; details: 500 ppm, 30 minutes, FIGS. 26-29
Protocol: To determine the effect of various GRAS compounds as inhibitors of peroxidase activity, a standard assay using Amplex® Red (Life Technologies), which releases a fluorescent oxidation product.
The test compounds, such as GRAS materials or cocktails of same, were prepared at a concentration of 500 ppm in distilled water. For the assay, 50 μl samples of test compounds were mixed with 20-30 μl of saliva (either “pooled” or “unpooled”) prior to the addition of Amplex® Red. Following the mixture of the test compounds with saliva, 50 μl of Amplex® Red/HRP working solution (See Protocol for Invitrogen Assay #A22188, which is incorporated herein in its entirety), which has a concentration of 100 μM of Amplex® Red, is added to the test compound/saliva mixture. […] Reactions were allowed to run for 30 minutes during these assays.

α-amylase = target: T1, α-amylase (Homo sapiens, UniProt P0DUB6); experiment: α-Amylase inhibition saliva screening (2-chloro-p-nitrophenol-maltotriose substrate, 405 nm); type: biochemical; details: for absorbance at 405 nm, single readings: 37° C., beside 100% Saliva Control; for Ave: mean of four readings at 405 nm
T1 sequence (P0DUB6 16-511): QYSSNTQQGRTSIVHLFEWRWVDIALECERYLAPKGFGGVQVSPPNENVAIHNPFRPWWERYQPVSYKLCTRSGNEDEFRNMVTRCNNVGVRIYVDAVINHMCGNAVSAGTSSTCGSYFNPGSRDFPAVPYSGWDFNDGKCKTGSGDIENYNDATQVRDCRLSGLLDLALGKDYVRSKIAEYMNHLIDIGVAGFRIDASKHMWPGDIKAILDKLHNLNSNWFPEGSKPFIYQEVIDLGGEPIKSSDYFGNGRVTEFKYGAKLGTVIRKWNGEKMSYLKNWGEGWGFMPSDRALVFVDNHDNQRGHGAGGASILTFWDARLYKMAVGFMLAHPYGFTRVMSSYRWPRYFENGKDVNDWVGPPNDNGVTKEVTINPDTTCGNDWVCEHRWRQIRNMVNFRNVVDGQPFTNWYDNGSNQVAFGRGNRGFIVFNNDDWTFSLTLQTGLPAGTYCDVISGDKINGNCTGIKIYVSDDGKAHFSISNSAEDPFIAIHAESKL
Excerpt: Enzymatic activity of α-amylase on the substrate yields 2-chloro-p-nitrophenol, which can be measured spectrophotometrically at 405 nm. The amount of α-amylase activity present in the experimental sample is directly proportional to the increase in absorbance at 405 nm.

Row | Molecule | peroxidase inhibition (peroxidase) | absorbance at 405 nm, single readings (α-amylase; 0 min, sulfate hydrate) | Ave (α-amylase; 0 min) | absorbance at 405 nm, single readings (α-amylase; 5 min, sulfate hydrate) | Ave (α-amylase; 5 min) | absorbance at 405 nm, single readings (α-amylase; 15 min, sulfate hydrate) | Ave (α-amylase; 15 min) | absorbance at 405 nm, single readings (α-amylase; 0 min) | absorbance at 405 nm, single readings (α-amylase; 5 min)
1 | COc1ccc(O)c(C(C)(C)C)c1 [CDI-039, 3-tert--butyl-hydroxyanisole] | significant peroxidase inhibition capabilities | – | – | – | – | – | – | – | –
2 | Aluminum sulfate hydrate [CDI-34] | – | 0.40 and 0.36 and 0.45 | 0.40 | 0.49 and 0.50 and 0.52 | 0.50 | 0.53 and 0.61 and 0.54 and 0.56 | 0.56 | – | –
3 | Cn1c(=O)c2c(ncn2C)n(C)c1=O [CDI #33, Caffeine] | significant peroxidase inhibition capabilities | – | – | – | – | – | – | – | –
4 | Aluminum potassium sulfate dodecahydrate [CDI-42] | significant peroxidase inhibition capabilities | – | 0.92 | – | 1.85 | – | 2.29 | 0.80 and 0.90 and 0.84 | 1.80

From patent US8426151B2, “Systems and methods for the detection of biomarkers” (Companion Diagnostics Inc., priority 2010, dated 2013)
